Laboratory results: PubChem BioAssay (NCI)
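Interpolation was linear, between the two tested concentrations surrounding the appropriate level; five concentrations were tested over 48 hours in 96-well plates. TGI denotes the concentration required for complete inhibition of growth.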

Legend:
Assay in all cases: growth of human tumour cells (NCI), 48 h
IGROV1 ovarian = test system: IGROV1 ovarian
SW-620 colon = test system: SW-620 colon
MALME-3M melanoma = test system: MALME-3M melanoma
NCI-H23 lung = test system: NCI-H23 lung
SK-MEL-28 melanoma = test system: SK-MEL-28 melanoma
HCC-2998 colon = test system: HCC-2998 colon
RXF 393 renal = test system: RXF 393 renal
HCT-116 colon = test system: HCT-116 colon
SF-539 CNS = test system: SF-539 CNS
A498 renal = test system: A498 renal
UO-31 renal = test system: UO-31 renal
HOP-18 NSCLC = test system: HOP-18 NSCLC
A549 NSCLC = test system: A549 NSCLC
SK-MEL-5 melanoma = test system: SK-MEL-5 melanoma
OVCAR-8 ovarian = test system: OVCAR-8 ovarian
SNB-78 CNS = test system: SNB-78 CNS
LOX IMVI melanoma = test system: LOX IMVI melanoma
KM12 colon = test system: KM12 colon
MOLT-4 leukemia = test system: MOLT-4 leukemia
786-0 renal = test system: 786-0 renal
NCI-H522 lung = test system: NCI-H522 lung
UACC-257 melanoma = test system: UACC-257 melanoma
SF-268 CNS = test system: SF-268 CNS
ACHN renal = test system: ACHN renal
LXFL 529 NSCLC = test system: LXFL 529 NSCLC
KM20L2 colon = test system: KM20L2 colon
OVCAR-5 ovarian = test system: OVCAR-5 ovarian
UACC-62 melanoma = test system: UACC-62 melanoma
OVCAR-3 ovarian = test system: OVCAR-3 ovarian
NCI-H460 lung = test system: NCI-H460 lung
TK-10 renal = test system: TK-10 renal
HCT-15 colon = test system: HCT-15 colon
SK-MEL-2 melanoma = test system: SK-MEL-2 melanoma
SK-OV-3 ovarian = test system: SK-OV-3 ovarian
NCI-H226 lung = test system: NCI-H226 lung
U251 CNS = test system: U251 CNS
OVCAR-4 ovarian = test system: OVCAR-4 ovarian
SNB-75 CNS = test system: SNB-75 CNS
DMS 114 small cell lung = test system: DMS 114 small cell lung
CCRF-CEM leukemia = test system: CCRF-CEM leukemia
SNB-19 CNS = test system: SNB-19 CNS
HL-60(TB) leukemia = test system: HL-60(TB) leukemia
K-562 leukemia = test system: K-562 leukemia
DLD-1 colon = test system: DLD-1 colon
HT29 colon = test system: HT29 colon
HOP-62 NSCLC = test system: HOP-62 NSCLC
SN12C renal = test system: SN12C renal
M19-MEL melanoma = test system: M19-MEL melanoma
RPMI-8226 leukemia = test system: RPMI-8226 leukemia
M14 melanoma = test system: M14 melanoma
COLO 205 colon = test system: COLO 205 colon
DMS 273 small cell lung = test system: DMS 273 small cell lung
SF-295 CNS = test system: SF-295 CNS
CAKI-1 renal = test system: CAKI-1 renal

Measured: TGI

COc1cccc2c1C(=O)C1(O)CCCCC21 (centres undefined)
> 100 µM: all assays above
